Three compounds from patent US7902226B2, “Dehalogeno-compounds” (Daiichi Pharmaceutical Co., Ltd., priority 2000, dated 2011) can be followed below.

≈ marks a conversion by molar mass, not a printed value.

In one data set the test system is E. coli, NIHJ. The experiment in a line: Antibacterial activity (MIC), standard method of the Japan Society of Chemotherapy. To be noted: Escherichia coli. The data set is classed as cell-based. On the procedure:
(§1) Antibacterial activities of the compounds of this invention were measured in accordance to the standard method designated by the Japan Society of Chemotherapy, with the results shown as MIC values (microgram/ml) units in the following table. For comparison with the MIC values of the compounds of this invention, MIC values of levofloxacin (LVFX), ciprofloxacin (CPFX) and 7-[3-(R)-(1-aminocyclopropyl)pyrrolidin-1-yl]-6-fluoro-1-[2-(S)-fluoro-1-(R)-cyclopropyl]-8-methyl-1,4-dihydro-4-oxoquinoline-3-carboxylic acid (Reference drug 1), which is described in PCT/JP96/00208, are also shown in the table.

The test system of the next data set is K. pneumoniae, Type 1. The description is as above. The data set is classed as cell-based. To be noted: Klebsiella pneumoniae, TYPE1. On the procedure: as §1
In another data set the test system is Pr. vulgalis, 08601. The description is as above. Format: cell-based. How it is done:
as §1

The next data set deals with Ps. aeruginosa, 32104. Described as above. Format: cell-based. The conditions noted are these: Pseudomonas aeruginosa. How it is done:
as §1

A further data set has as its system Ps. aeruginosa, 32121. Described as above. The data set is classed as cell-based. To be noted: Pseudomonas aeruginosa. On the procedure: as §1
The subject of data set [1] is Ps. maltophilia, IID-1275. The description is as above. Format: cell-based. The conditions noted are these: Stenotrophomonas maltophilia, IID1275. On the procedure:
as §1

For a further data set, the system named is S. aureus, 209P. The description is as above. The data set is classed as cell-based. To be noted: Staphylococcus aureus. On the procedure: as §1
For another data set, the system named is S. aureus, 870307. The description is as above. Format: cell-based. To be noted: Staphylococcus aureus. How it is done:
as §1

For another data set, the system named is S. epidermidis, 56500. The description is as above. The data set is classed as cell-based. The conditions noted are these: Staphylococcus epidermidis. How it is done: as §1
In a further data set the test system is S. flexneri, 2A 5503. Described as above. The data set is classed as cell-based. The conditions noted are these: Shigella flexneri, 2A5503. On the procedure:
as §1

The next data set deals with Ser. marcescens, 10100. The description is as above. To be noted: Serratia marcescens. Format: cell-based. How it is done:
as §1

Data set [2] concerns Str. faecalis, ATCC 19433. The description is as above. Format: cell-based. To be noted: Enterococcus faecalis, ATCC19433. How it is done:
as §1

A further data set deals with Str. pneumoniae J24. The data set is described as above. Format: cell-based. To be noted: Streptococcus pneumoniae. How it is done:
as §1

The test system of the next data set is Str. pyogenes, G-36. The description is as above. The data set is classed as cell-based. To be noted: Streptococcus pyogenes, G36. How it is done:
as §1

`CNC1([C@@H]2CCN(c3ccc4c(=O)c(C(=O)O)cn([C@@H]5C[C@@H]5F)c4c3OC)C2)CC1` [Example 11, 1-[2-(S)-fluoro-1-(R)-cyclopropyl]-8-methoxy-7-[3-(R)-[1-(methylamino)cyclopropyl]pyrrolidin-1-yl]-1,4-dihydro-4-oxoquinoline-3-carboxylic acid]: the melting point was 213 to 215 °C. Besides, 0.006 µg/mL (≈ 0.0144 µM) was the least that counted as inhibitory against E. coli, NIHJ (MIC). Also, 0.1 µg/mL (≈ 0.241 µM) was the least that counted as inhibitory against K. pneumoniae, Type 1 (MIC). The compound further showed an MIC in the data set on Pr. vulgalis, 08601 of 0.012 µg/mL (≈ 0.0289 µM). In the data set with Ps. aeruginosa, 32104, this compound showed a minimum inhibitory concentration (MIC) of 0.2 µg/mL (≈ 0.481 µM). This compound also displayed an MIC in the data set with Ps. aeruginosa, 32121 of 0.1 µg/mL (≈ 0.241 µM). In data set [1], this compound had an MIC of 0.2 µg/mL (≈ 0.481 µM). In addition, the MIC in the data set on S. aureus, 209P was ≤ 0.003 µg/mL. Moreover, it took 0.05 µg/mL (≈ 0.12 µM) to inhibit growth in the data set on S. aureus, 870307 (MIC). Further, 0.012 µg/mL (≈ 0.0289 µM) was the least that counted as inhibitory in the data set on S. epidermidis, 56500 (MIC). This compound also returned an MIC in the data set with S. flexneri, 2A 5503 of 0.012 µg/mL (≈ 0.0289 µM). Also, in the data set on Ser. marcescens, 10100, the MIC stood at 0.2 µg/mL (≈ 0.481 µM). Further, the MIC in [2] came to 0.05 µg/mL (≈ 0.12 µM). For the same compound, in the data set with Str. pneumoniae J24, the minimum inhibitory concentration (MIC) was determined as 0.006 µg/mL (≈ 0.0144 µM). This compound also showed a minimum inhibitory concentration (MIC) against Str. pyogenes, G-36 of 0.012 µg/mL (≈ 0.0289 µM).
On to `CCNC1([C@@H]2CCN(c3ccc4c(=O)c(C(=O)O)cn([C@@H]5C[C@@H]5F)c4c3C)C2)CC1` [Example 14, 7-[3-(R)-[1-(ethylamino)cyclopropyl]pyrrolidin-1-yl]-1-[2-(S)-fluoro-1-(R)-cyclopropyl]-8-methyl-1,4-dihydro-4-oxoquinoline-3-carboxylic acid], for which the melting point fell in the range of 191 to 194 °C. Further, in the data set on E. coli, NIHJ, the MIC is ≤ 0.003 µg/mL. It took 0.05 µg/mL (≈ 0.121 µM) to inhibit growth in the data set on K. pneumoniae, Type 1 (MIC). The compound further gave an MIC in the data set on Pr. vulgalis, 08601 of 0.012 µg/mL (≈ 0.029 µM). This compound also displayed an MIC in the data set with Ps. aeruginosa, 32104 of 0.1 µg/mL (≈ 0.242 µM). Also, the minimum inhibitory concentration (MIC) with Ps. aeruginosa, 32121 was 0.05 µg/mL (≈ 0.121 µM). Further, in data set [1], the minimum inhibitory concentration (MIC) stood at 0.2 µg/mL (≈ 0.484 µM). The MIC against S. aureus, 209P is ≤ 0.003 µg/mL. For the same compound, in the data set with S. aureus, 870307, inhibition of growth (MIC) required 0.012 µg/mL (≈ 0.029 µM). In the data set with S. epidermidis, 56500, this compound showed a minimum inhibitory concentration (MIC) of 0.006 µg/mL (≈ 0.0145 µM). The compound further had a minimal inhibitory concentration (MIC) against S. flexneri, 2A 5503 of 0.006 µg/mL (≈ 0.0145 µM). In the data set with Ser. marcescens, 10100, this compound showed a minimum inhibitory concentration (MIC) of 0.1 µg/mL (≈ 0.242 µM). In addition, the MIC in data set [2] worked out at 0.025 µg/mL (≈ 0.0605 µM). The MIC against Str. pneumoniae J24 was ≤ 0.003 µg/mL. In addition, the MIC in the data set on Str. pyogenes, G-36 is ≤ 0.003 µg/mL.
On to `CNC1([C@@H]2CCN(c3ccc4c(=O)c(C(=O)O)cn(C5CC5)c4c3C)C2)CC1` [Example 15, 1-(cyclopropyl)-8-methyl-7-[3-(R)-[1-(methylamino)cyclopropyl]pyrrolidin-1-yl]-1,4-dihydro-4-oxoquinoline-3-carboxylic acid], for which the melting point lay within 190 to 192 °C. Moreover, the MIC against E. coli, NIHJ was ≤ 0.003 µg/mL. The compound also gave an MIC with K. pneumoniae, Type 1 of 0.025 µg/mL (≈ 0.0655 µM). In the data set with Pr. vulgalis, 08601, this compound displayed an MIC of 0.012 µg/mL (≈ 0.0315 µM). The same compound yielded a minimum inhibitory concentration (MIC) in the data set on Ps. aeruginosa, 32104 of 0.1 µg/mL (≈ 0.262 µM). This compound had an MIC in the data set on Ps. aeruginosa, 32121 of 0.05 µg/mL (≈ 0.131 µM). Also, in data set [1], the MIC was 0.2 µg/mL (≈ 0.524 µM). Besides, the MIC with S. aureus, 209P was ≤ 0.003 µg/mL. The minimum inhibitory concentration (MIC) in the data set on S. aureus, 870307 came out at 0.025 µg/mL (≈ 0.0655 µM). For the same compound, in the data set with S. epidermidis, 56500, the minimum inhibitory concentration (MIC) is 0.006 µg/mL (≈ 0.0157 µM). For the same compound, inhibition of growth in the data set with S. flexneri, 2A 5503 (MIC) required 0.006 µg/mL (≈ 0.0157 µM). This compound showed an MIC against Ser. marcescens, 10100 of 0.1 µg/mL (≈ 0.262 µM). The same compound yielded an MIC in data set [2] of 0.025 µg/mL (≈ 0.0655 µM). For the same compound, the minimum inhibitory concentration (MIC) with Str. pneumoniae J24 was ≤ 0.003 µg/mL. In the data set with Str. pyogenes, G-36, the minimal inhibitory concentration (MIC) was ≤ 0.003 µg/mL.

One may read the MIC as the lowest concentration found to suppress growth. A low value points to inhibition by little substance. For orientation: melting point means the temperature, or range, at which the solid turns liquid.
